{"source": "patent US11401260B2", "about": "“Biochemical binding of RET9 and VEGFR2 inhibitors” (Kala Pharmaceuticals, Inc., priority 2017, dated 2022)", "key": {"RET9": {"target": "RET9 (Homo sapiens (Human), UniProt P07949)", "sequence (P07949 other isoform, or with tags, fused parts or gaps)": "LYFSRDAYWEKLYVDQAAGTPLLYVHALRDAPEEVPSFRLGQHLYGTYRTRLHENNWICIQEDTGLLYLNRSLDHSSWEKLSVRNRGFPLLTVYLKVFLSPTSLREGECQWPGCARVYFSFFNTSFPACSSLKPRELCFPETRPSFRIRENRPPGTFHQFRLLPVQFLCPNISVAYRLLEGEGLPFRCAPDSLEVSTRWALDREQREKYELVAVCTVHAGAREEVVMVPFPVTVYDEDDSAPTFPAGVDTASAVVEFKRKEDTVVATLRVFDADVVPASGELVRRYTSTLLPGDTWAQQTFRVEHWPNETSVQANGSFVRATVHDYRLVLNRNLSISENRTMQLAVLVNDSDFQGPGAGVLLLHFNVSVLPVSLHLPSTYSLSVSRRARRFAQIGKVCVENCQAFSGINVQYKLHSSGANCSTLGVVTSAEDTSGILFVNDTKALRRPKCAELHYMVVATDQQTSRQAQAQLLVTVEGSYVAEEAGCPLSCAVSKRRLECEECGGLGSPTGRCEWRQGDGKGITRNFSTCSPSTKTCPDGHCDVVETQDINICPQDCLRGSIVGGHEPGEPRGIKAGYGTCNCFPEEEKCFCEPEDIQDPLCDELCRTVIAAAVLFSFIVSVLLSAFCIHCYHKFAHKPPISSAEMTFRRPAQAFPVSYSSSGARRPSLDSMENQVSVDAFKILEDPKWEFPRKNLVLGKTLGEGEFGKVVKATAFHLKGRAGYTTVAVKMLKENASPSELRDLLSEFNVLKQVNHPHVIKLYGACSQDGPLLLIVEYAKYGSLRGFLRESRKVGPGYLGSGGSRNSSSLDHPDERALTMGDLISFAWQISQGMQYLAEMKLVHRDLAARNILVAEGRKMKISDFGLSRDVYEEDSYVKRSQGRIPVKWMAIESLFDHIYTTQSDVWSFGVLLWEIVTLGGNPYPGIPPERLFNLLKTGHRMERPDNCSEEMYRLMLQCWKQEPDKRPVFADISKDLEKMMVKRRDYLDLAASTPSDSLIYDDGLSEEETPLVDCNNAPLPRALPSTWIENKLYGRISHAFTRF", "test": "RET9 competition binding assay (DISCOVERX KINOMESCAN)", "experimental": "A competition binding assay ([…]) was used to measure the ability of a compound to compete for binding of an immobilized adenosine triphosphate (ATP) site directed ligand using a DNA-tagged vascular endothelial growth receptor 2 (VEGFR2) as the target. The ability of the test compound to compete with the immobilized ligand was measured using quantitative polymerase chain reaction (qPCR) of the DNA tag (Fabian, M. A. et al., 23 Nature Biotechnology 329-336 (2005); Karaman, M. W. et al., 26 Nature Biotechnology 127-132 (2008)). Similarly, a competition binding assay ([…]) was used to determine the dissociation constant (Kd) of Compound 1 to RET9."}, "[1]": {"target": "vascular endothelial growth receptor 2 (VEGFR2) (Homo sapiens (Human), UniProt P35968)", "sequence (P35968 20-1356)": "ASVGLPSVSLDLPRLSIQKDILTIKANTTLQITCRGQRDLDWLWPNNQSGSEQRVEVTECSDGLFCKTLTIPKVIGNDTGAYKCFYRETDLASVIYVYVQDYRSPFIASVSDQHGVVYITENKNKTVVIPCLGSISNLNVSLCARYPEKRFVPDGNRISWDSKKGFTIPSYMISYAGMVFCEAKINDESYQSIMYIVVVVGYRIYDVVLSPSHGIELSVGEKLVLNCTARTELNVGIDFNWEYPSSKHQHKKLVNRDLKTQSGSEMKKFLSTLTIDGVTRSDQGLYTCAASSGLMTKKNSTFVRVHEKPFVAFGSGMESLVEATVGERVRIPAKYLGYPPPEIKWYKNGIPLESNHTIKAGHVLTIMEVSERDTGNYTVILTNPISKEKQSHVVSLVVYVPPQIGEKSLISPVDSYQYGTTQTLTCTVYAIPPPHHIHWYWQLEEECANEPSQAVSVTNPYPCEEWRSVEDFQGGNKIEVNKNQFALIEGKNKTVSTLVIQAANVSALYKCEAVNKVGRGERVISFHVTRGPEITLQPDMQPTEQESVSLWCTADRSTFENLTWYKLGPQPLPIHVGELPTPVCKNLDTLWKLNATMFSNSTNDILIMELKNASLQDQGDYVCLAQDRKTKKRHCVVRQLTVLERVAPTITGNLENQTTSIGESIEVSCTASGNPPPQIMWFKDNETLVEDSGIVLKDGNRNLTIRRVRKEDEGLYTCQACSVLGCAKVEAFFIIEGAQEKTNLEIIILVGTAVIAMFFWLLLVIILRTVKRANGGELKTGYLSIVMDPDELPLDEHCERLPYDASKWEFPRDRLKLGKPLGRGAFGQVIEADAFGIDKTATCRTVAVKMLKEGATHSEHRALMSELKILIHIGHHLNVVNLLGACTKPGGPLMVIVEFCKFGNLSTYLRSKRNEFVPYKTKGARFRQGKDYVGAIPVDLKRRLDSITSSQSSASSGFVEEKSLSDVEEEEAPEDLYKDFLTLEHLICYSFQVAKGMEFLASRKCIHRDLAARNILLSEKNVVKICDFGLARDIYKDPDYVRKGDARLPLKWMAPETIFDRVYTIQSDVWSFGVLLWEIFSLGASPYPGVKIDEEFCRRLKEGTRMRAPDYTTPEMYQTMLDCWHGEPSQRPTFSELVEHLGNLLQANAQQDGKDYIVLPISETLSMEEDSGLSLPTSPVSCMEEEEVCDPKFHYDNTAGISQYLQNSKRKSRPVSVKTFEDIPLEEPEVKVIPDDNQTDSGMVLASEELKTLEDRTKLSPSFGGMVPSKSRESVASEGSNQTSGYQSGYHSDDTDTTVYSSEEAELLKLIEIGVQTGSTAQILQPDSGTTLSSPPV", "test": "VEGFR2 competition binding assay (DISCOVERX KINOMESCAN)", "conditions": "11-point dose response, 3-fold serial dilution starting at 1 μM", "experimental": "A competition binding assay ([…]) was used to measure the ability of a compound to compete for binding of an immobilized adenosine triphosphate (ATP) site directed ligand using a DNA-tagged vascular endothelial growth receptor 2 (VEGFR2) as the target. The ability of the test compound to compete with the immobilized ligand was measured using quantitative polymerase chain reaction (qPCR) of the DNA tag (Fabian, M. A. et al., 23 Nature Biotechnology 329-336 (2005); Karaman, M. W. et al., 26 Nature Biotechnology 127-132 (2008)). A VEGFR2 tagged T7 phage strain was prepared in an Escherichia coli (E. coli) derived from the BL21 strain. The E. coli were grown to log-phase, infected with VEGFR2 tagged T7 phage and then incubated with shaking at 32° C. until lysis. The lysate containing the kinase was then centrifuged and filtered to remove cell debris. Affinity resin for the VEGFR2 assay was prepared by treating Streptavidin-coated magnetic beads with a biotinylated small molecule ligand for 30 minutes at room temperature. […] The VEGFR2 concentration in the eluate was measured using qPCR. […] Binding constants were calculated with standard dose-response curve using the Hill equation with Hill slope set to -1. […]"}}, "data": [{"smiles": "COc1cc2c(Oc3ccc4[nH]c(C)cc4c3F)ncnc2cc1OCCCN1CCC(CO)(CO)CC1", "note": "[Compound 1, 7-(3-[4,4-bis(hydroxymethyl)-1-piperidinyl]propoxy)-4-(4-fluoro-2-methyl-1H-indol-5-yloxy)-6-methoxyquinazoline]", "values": [{"measurement": "Kd", "setting": "RET9", "value": 3.9, "unit": "nM"}, {"measurement": "Kd", "setting": "[1]", "value": 0.38, "unit": "nM"}]}]}
